This assay relates to P. falciparum 3D7 growth, pLDH absorbance. Nature of the assay: P. falciparum 3D7 growth inhibition, dose response, strain 3D7 (AID 2305).

With `COc1ccc(N2CCN(CCCCNC(=O)c3ccc(NC(=O)c4ccc(OC(F)(F)F)cc4)cc3)CC2)c(OC)c1`, the half-maximal inhibitory concentration (IC50) (commonly the concentration that gives 50% inhibition) was determined as 580 nM.

In turn, `COC(=O)c1ccc(CCC(C)NCC(O)c2cccc(Cl)c2)cc1` (stereo not given) had a 50% inhibitory concentration (IC50) of 670 nM.

The compound `COc1cc(COc2c(C)nc(N)nc2N)cc(OC)c1OC` had a 50% inhibitory concentration (IC50) of 330 nM.

`Cc1cccc2[nH]c(-c3cccc(-c4cccc(NC(=O)Nc5cccc(C#N)c5)c4)c3)nc12` came in with an IC50 of 100 nM.

On to `CCCC(C)c1ccc(N2C(N)=NC(N)=NC2(C)C)cc1` (stereo not given), for which the IC50 came out at 10 nM.

`CC(=O)c1ccc2nc[nH]c(=O)c2c1` returned an IC50 of 720 nM.

For the compound `COc1ccc2c(=O)c3ccc(OC)cc3[nH]c2c1`, the IC50 is 810 nM.

Regarding `Nc1nc(N)c2c3c(ccc2n1)NCCC3`, the IC50 was 730 nM.

The compound `Cc1cc2c(NC(=O)NC3CCN(CCc4cccc(Cl)c4)CC3)cccc2cn1` gave an IC50 of 370 nM.

Consider `CN(C)C(=S)N=Nc1c(O)[nH]c2ccccc12`, for which the half-maximal inhibitory concentration (IC50) worked out at 1050 nM.

As for `CCCCCCN1CCC(NCc2cccc(C#N)c2)CC1`, the IC50 was 780 nM.

Take `CCCCCC(C)C(C)c1cc(O)c2c(c1)O[C@@]1(C(C)C)CC(O)[C@H](C)[C@@H]2C1` (stereo not given in full): the half-inhibitory concentration (IC50) worked out at 990 nM.

For `Cc1cc(OCC2CCN(c3ccc(C(=O)NC4CC4)cn3)CC2)ccc1F`, the IC50 was determined as 870 nM.

Regarding `COc1ccc2ncc(F)c(NC(=O)C3CCC(NCc4cc5cc(F)cc(F)c5[nH]4)CC3)c2n1` (stereo not given), the IC50 is 1090 nM.

For the compound `CC(=O)c1c(C)[nH]c(C(=O)Nc2ccc(-c3nc4ccc(C)cc4s3)cc2)c1C`, the concentration for half-maximal inhibition (IC50) stood at 840 nM.

`O=C(/C=C/c1ccc(F)cc1)NC1CCC(CCN2CCc3ccccc3CC2)CC1` (stereo not given) yielded an IC50 of 1400 nM.

Take `CCc1nc2c(cnn2CC)c(NC2CCOCC2)c1CNC(=O)c1ccoc1C`: the half-maximal inhibitory concentration (IC50) was found to be 890 nM.

Turning to `CN(C)Cc1cccc(-c2ccc(Nc3nccc(NCC(O)c4ccccc4)n3)cc2)c1` (stereo not given), the half-inhibitory concentration (IC50) was determined as 140 nM.

`Cc1[nH]c(C)c(-c2ccc(Oc3cccc(OC(F)(F)F)c3)cc2)c(=O)c1Cl`: the IC50 worked out at 680 nM.

In turn, `COc1ccc(N2CCN(CCCCNC(=O)c3ccc(NC(=O)c4ccc(Cl)cc4)cc3)CC2)c(OC)c1` registered a half-maximal inhibitory concentration (IC50) of 950 nM.

Take `O=C(Nc1ccc(CCNC2=NCCN2)cc1)Nc1ccc(CCNC2=NCCN2)cc1`: the IC50 is 790 nM.

In turn, `CN1CCC(NCc2ccc(-c3ccc(S(=O)(=O)NC4CCC4)s3)cc2)CC1` gave an IC50 of 850 nM.

`CC(C)(C)c1ccc2nc(-c3ccc(/C=C/C(=O)NCc4cccc(C(F)(F)F)c4)cc3)[nH]c2c1` displayed a half-inhibitory concentration (IC50) of 990 nM.

The compound `CCCCCc1cc(O)c2c(c1)OC(C)(C)c1ccncc1-2` registered an IC50 of 760 nM.

`O=C(Nc1cccc(-c2nn3ccccc3c2-c2ccnc(Nc3cccc(-c4cnco4)c3)n2)c1)C1CCCCC1` returned an IC50 of 260 nM.

`COCCN(C)CCCOc1cc2c(cc1OC)ncn2-c1cc(OCc2ccccc2C(F)(F)F)c(C(N)=O)s1`: the IC50 was 710 nM.

Consider `CCCN(CC1CC1)c1ncc(-c2ccccc2CNCc2ccccc2O)cn1`, for which the concentration for half-maximal inhibition (IC50) is 500 nM.

Take `CC1(C)N=C(N)NC(Nc2ccc(F)c(F)c2)=N1`: the half-maximal inhibitory concentration (IC50) is 50 nM.

As to `Cc1sc(NC(=O)Cc2cccc(C(F)(F)F)c2)nc1-c1cccc(Cl)c1`, the 50% inhibitory concentration (IC50) is 470 nM.

Compound `CC(C)Oc1cc2c(cc1NS(=O)(=O)c1ccc(-c3ccc(Cl)cc3)cc1)CCN(C)CC2` yielded a half-inhibitory concentration (IC50) of 1040 nM.

With `CS(=O)(=O)Nc1ccc(OCCCCCCOc2ccc(NS(C)(=O)=O)cc2)cc1`, the concentration for half-maximal inhibition (IC50) was 490 nM.

`CCCCC(CC)C(=O)C(NC(=O)[C@H](CSC(c1ccccc1)(c1ccccc1)c1ccccc1)NC(=O)OC(C)(C)C)C(=O)OC` (stereo not given in full) returned a half-inhibitory concentration (IC50) of 1020 nM.

`Cc1cccc2[nH]c(-c3cccc(-c4cccc(NC(=O)NCc5ccccc5)c4)c3)nc12`: the IC50 was 520 nM.

`Clc1ccc(-c2ccc(CNCCCN3CCCC3)cc2)cc1` had a half-maximal inhibitory concentration (IC50) of 1060 nM.

With `COc1ccc(CCNc2nc(N)c3cc(OC)c(OC)cc3n2)cc1`, the IC50 worked out at 1120 nM.

Take `Cc1cc(NN=Cc2cccc(F)c2)c2ccc(F)cc2n1`: the IC50 is 230 nM.

In the case of `CN1CCN(Cc2nc(-c3ccc4c(Nc5ccc(F)c(O)c5)ccnc4c3)cs2)CC1`, the concentration for half-maximal inhibition (IC50) worked out at 170 nM.

`Cc1[nH]c(C)c(-c2ccc(-c3ccc(F)cc3)cc2)c(=O)c1Br` came in with an IC50 of 1070 nM.

The compound `CN1CCC(NC(=O)c2cc(Oc3ccc4c(c3)CCN4C(=O)Nc3cccc(C(F)(F)F)c3)ccn2)CC1` gave an IC50 of 930 nM.

Take `CS(=O)(=O)c1cccc(-c2cnc(N)c3cc(-c4ccc(F)cc4)ccc23)c1`: the 50% inhibitory concentration (IC50) is 900 nM.

Compound `CCC[C@@H](/C=N/N(C)C(=O)OC(C)(C)C)NC(=O)[C@H](CC(C)C)NC(=O)c1cc2cccc(OC)c2o1` came in with a half-maximal inhibitory concentration (IC50) of 1080 nM.

In the case of `Cn1cc(CN2CCC(CCOC(c3ccccc3)c3ccccc3)CC2)cn1`, the concentration for half-maximal inhibition (IC50) came to 260 nM.

The compound `CCCCCCC(N)c1ccc(OCCCOc2ccc(C(N)CCCCCC)cc2)cc1` (stereo not given) returned a concentration for half-maximal inhibition (IC50) of 1140 nM.

Compound `COc1ccc(C=CC(=O)NC(=O)c2ccccc2OC(=O)c2ccccc2)cc1OC` displayed a half-inhibitory concentration (IC50) of 910 nM.

With `Cc1nccc2c(NC(=O)N[C@@H]3CCN(c4ncc(C(F)(F)F)cc4Br)C3)cccc12`, the IC50 worked out at 360 nM.

For the origin of these results see PubChem BioAssay AID2305 (GlaxoSmithKline (GSK), 2010).
